Measurements: paper PMC6268855, “New Trifluoromethyl Triazolopyrimidines as Anti-Plasmodiumfalciparum Agents” (Molecules, 2012)

Tests used:
Type in all cases: cell-based
[1] = system: Plasmodium falciparum chloroquine-resistant W2 clone; assay: anti-HRP2 test on P. falciparum-infected erythrocytes; details: for IC50: Plasmodium falciparum, read-out: IC50 Plasmodium Falciparum Anti-HRP2; for activity class against P. falciparum: class by IC50
Description: (§1) Briefly, the parasites were kept as described at 37 °C in human erythrocytes (A^+) in complete medium (RPMI 1640 supplemented with 10% human sera blood group A^+, 2% glutamine, and 7.5% NaHCO3) either in Petri dishes in a candle jar or in 25-cm culture flasks in an environment containing a gas mixture atmosphere (3% O2, 5% CO2 and 91% N2). Before testing, the ring-stage parasites were synchronized by sorbitol; the suspension was adjusted for parasitemia and hematocrit as described below for each test used.
(§2) The effects of compounds against the W2 P. falciparum blood cultures were evaluated through incorporation of ^3H hypoxanthine (Perkin Elmer, Waltham, MA, USA) by the parasites. Alternatively, compound effects were also examined using monoclonal antibodies to a commercially available parasite histidine and alanine-rich protein (HRP2) (MPFM ICLLAB-55A®, MPFG55P ICLLAB®, Immunology Consultants Laboratory Inc. (ICL), Portland, OR, USA), as described previously. The [3H]-hypoxanthine assay was performed with 1% of parasitemia and 1% of hematocrit, and the level of isotope incorporation was read in a beta-counter (Perkin Elmer). The anti-HRP2 test was performed with 0.05% parasitemia and 1.5% hematocrit, and the quantification of protein was determined using a specific read at 450 nm in a spectrophotometer (SpectraMax340PC^384, Molecular Devices, Sunnyvale, CA, USA). Drug activities were expressed by the half-maximal inhibitory dose (IC50) compared to the drug-free controls and estimated using the curve-fitting software Origin 8.0 (OriginLab Corporation, Northampton, MA, USA).

[2] = system: Plasmodium falciparum chloroquine-resistant W2 clone; assay: [3H]-hypoxanthine incorporation assay on P. falciparum-infected erythrocytes; details: read-out: IC50 Plasmodium Falciparum Hypoxanthine
Description: as §1, §2

[3] = system: human hepatoma cell line (HepG2); details: MTT, 24 h incubation
Description: For in vitro cytotoxicity experiments, the cell monolayer was trypsinized, washed with culture medium, distributed in a flat-bottomed 96-well plate (5 × 10^3 cells/well), and finally incubated for 18 h at 37 °C for cell adherence.
For cytotoxicity testing, we used the (3-(4,5-dimethylthiazol-2-yl)-2,5-diphenyltetrazolium bromide (MTT) assay, performed as described in the literature. The HepG2 cell line was incubated with 20 µL of the compounds in different concentrations (200–25 µg/mL) for 24 h in an atmosphere of 5% CO2 at 37 °C.
For the MTT assay, which evaluates mitochondrial viability, 20 µL of MTT solution (5 mg/mL) was added, and the plates were incubated for an additional 3 h. After incubation, the supernatant was carefully removed from the wells, followed by addition of 100 µL DMSO with thorough mixing. Optical densities at 570 and 630 nm (background) were determined by an ELISA reader.
Cell viability was expressed as the percentage of control absorbance obtained in untreated cells after subtracting the absorbance from appropriate background. Lastly, the minimum lethal dose for 50% of the cells (MLD50) was determined as previously described in the literature. The ratio between MLD50 and drug activity (IC50) in vitro was used to determine the selectivity index (SI).

[4] = Erythrocyte, W2 clone, 0.05% parasitemia, 1.5% hematocrit
[5] = Erythrocyte, W2 clone, 1% parasitemia, 1% hematocrit

SMILES | MDL50 HepG2 [3] | IC50 [1, 4] | IC50 [2, 5] | IC50 ([1]; W2, Erythrocyte) | IC50 ([2]; W2, Erythrocyte) | activity class against P. falciparum ([1]; W2 clone)
CCN(CC)CCCC(C)Nc1ccnc2cc(Cl)ccc12 (stereo not drawn) [Chloroquine, reference compound] | 490 µM | – | – | 0.22 µM | 0.23 µM | –
Cc1cc(Nc2cccc3ccccc23)n2nc(C(F)(F)F)nc2n1 [Compound 4, 5-Methyl-7-(naphthalen-1-ylamine)-2-(trifluoromethyl)[1,2,4]triazolo[1,5-a]pyrimidine] | 326 µM | 2.2 µM | – | – | – | –
Cc1cc(Nc2cccc(Cl)c2)n2nc(C(F)(F)F)nc2n1 [Compound 7, 7-(3-Chlorophenylamine)-5-methyl-2-(trifluoromethyl)[1,2,4]triazolo[1,5-a]pyrimidine] | 373 µM | 1.83 ± 1.1 µM | 1.22 µM | – | – | –
Cc1cc(Nc2c(F)cccc2F)n2nc(C(F)(F)F)nc2n1 [Compound 10, 7-(2,6-Difluorophenylamine)-5-methyl-2-(trifluoromethyl)[1,2,4]triazolo[1,5-a]pyrimidine] | 337 µM | > 69.9 µM | > 149 µM | – | – | Inactive
COc1cc(Nc2cc(C)nc3nc(C(F)(F)F)nn23)cc(OC)c1 [Compound 12, 7-(3,5-Dimethoxyphenylamine)-5-methyl-2-(trifluoromethyl)[1,2,4]triazolo[1,5-a]pyrimidine] | 498 µM | 2.5 ± 0.05 µM | 0.36 ± 0.1 µM | – | – | –
Cc1cc(Nc2cc(Cl)cc(Cl)c2)n2nc(C(F)(F)F)nc2n1 [Compound 13, 7-(3,5-Dichlorophenylamine)-5-methyl-2-(trifluoromethyl)[1,2,4]triazolo[1,5-a]pyrimidine] | 320 µM | 1.47 ± 0.11 µM | 0.83 ± 0.58 µM | – | – | –
Cc1cc(Nc2ccc(C(F)(F)F)cc2)n2nc(C)nc2n1 [Compound 16, 2,5-Dimethyl-7-(4-(trifluoromethyl)phenylamine)-[1,2,4]triazolo[1,5-a]pyrimidine] | 446 µM | 0.3 µM | 0.4 ± 0.06 µM | – | – | –
Cc1cc(NC2CCCCC2)n2nc(C(F)(F)F)nc2n1 [Compound 18, 7-Cyclohexylamine-5-methyl-2-(trifluoromethyl)[1,2,4]triazolo[1,5-a]pyrimidine] | 515 µM | 8.69 ± 0.46 µM | 10 µM | – | – | –
Cc1cc(N2CCN(C)CC2)n2nc(C(F)(F)F)nc2n1 [Compound 20, 5-Methyl-7-(4-methylpiperazin-1-yl)-2-(trifluoromethyl)[1,2,4]triazolo[1,5-a]pyrimidine] | >666 µM | 39 ± 17 µM | 57 ± 13 µM | – | – | Inactive
Cc1cc(Nc2ccccn2)n2nc(C(F)(F)F)nc2n1 [Compound 22, 5-Methyl-7-(pyridin-2-ylamine)-2-(trifluoromethyl)[1,2,4]triazolo[1,5-a]pyrimidine] | 394 µM | > 156 µM | > 170 µM | – | – | Inactive
Cc1cc(-n2cccn2)n2nc(C(F)(F)F)nc2n1 [Compound 24, 5-Methyl-7-(1H-pyrazol-1-yl)-2-(trifluoromethyl)[1,2,4]triazolo[1,5-a]pyrimidine] | >746 µM | 2.1 µM | – | – | – | –
Cc1cc(-n2ccnc2)n2nc(C(F)(F)F)nc2n1 [Compound 25, 7-(1H-Imidazol-1-yl)-5-methyl-2-(trifluoromethyl)[1,2,4]triazolo[1,5-a]pyrimidine] | <93 µM | 21 ± 2 µM | 15 ± 0.7 µM | – | – | –
Cc1cc(-n2cncn2)n2nc(C(F)(F)F)nc2n1 [Compound 26, 5-Methyl-7-(1H-1,2,4-triazol-1-yl)-2-(trifluoromethyl)[1,2,4]triazolo[1,5-a]pyrimidine] | <93 µM | 29.7 µM | 33.5 ± 14.9 µM | – | – | Inactive

Second part, led by results:

MDL50 HepG2 [3] | IC50 [1, 4] | IC50 [2, 5] | SMILES | IC50 ([1]; W2, Erythrocyte) | IC50 ([2]; W2, Erythrocyte) | activity class against P. falciparum ([1]; W2 clone)
425 µM | 0.023 ± 0.002 µM | – | Cc1cc(Nc2ccc3ccccc3c2)n2nc(C(F)(F)F)nc2n1 [Compound 5, 5-Methyl-7-(naphthalen-2-ylamine)-2-(trifluoromethyl)[1,2,4]triazolo[1,5-a]pyrimidine] | – | – | –
>682 µM | 3 ± 2 µM | 10.2 ± 5 µM | Cc1cc(Nc2ccccc2)n2nc(C(F)(F)F)nc2n1 [Compound 6, 5-Methyl-7-phenylamine-2-(trifluoromethyl)[1,2,4]triazolo[1,5-a]pyrimidine] | – | – | –
>552 µM | 0.55 ± 0.66 µM | 0.11 ± 0.05 µM | Cc1cc(Nc2ccc(Cl)c(Cl)c2)n2nc(C(F)(F)F)nc2n1 [Compound 8, 7-(3,4-Dichlorophenylamine)-5-methyl-2-(trifluoromethyl)[1,2,4]triazolo[1,5-a]pyrimidine] | – | – | –
320 µM | 2.7 ± 2.21 µM | 3.32 ± 1.1 µM | Cc1cc(Nc2ccc(Cl)cc2Cl)n2nc(C(F)(F)F)nc2n1 [Compound 9, 7-(2,4-Dichlorophenylamine)-5-methyl-2-(trifluoromethyl)[1,2,4]triazolo[1,5-a]pyrimidine] | – | – | –
>619 µM | 0.4 ± 0.09 µM | 1.5 ± 1.2 µM | COc1ccc(Nc2cc(C)nc3nc(C(F)(F)F)nn23)cc1 [Compound 11, 7-(4-Methoxyphenylamine)-5-methyl-2-(trifluoromethyl)[1,2,4]triazolo[1,5-a]pyrimidine] | – | – | –
515 µM | 3.84 ± 0.4 µM | 15.1 ± 10 µM | COc1cc(Nc2cc(C)nc3nc(C)nn23)cc(OC)c1 [Compound 14, 7-(3,5-Dimethoxyphenylamine)-2,5-dimethyl[1,2,4]triazolo[1,5-a]pyrimidine] | – | – | –
415 µM | > 162 µM | 149 µM | Cc1cc(Nc2cc(Cl)cc(Cl)c2)n2nc(C)nc2n1 [Compound 15, 7-(3,5-Dichlorophenylamine)-2,5-dimethyl[1,2,4]triazolo[1,5-a]pyrimidine] | – | – | Inactive
269 µM | 12.3 µM | 23.4 µM | FC(F)(F)c1cc(Nc2cc(Cl)cc(Cl)c2)n2nc(C(F)(F)F)nc2n1 [Compound 17, 7-(3,5-Dichlorophenylamine)-2,5-bis(trifluoromethyl)[1,2,4]triazolo[1,5-a]pyrimidine] | – | – | –
>697 µM | > 174 µM | > 174 µM | Cc1cc(N2CCOCC2)n2nc(C(F)(F)F)nc2n1 [Compound 19] | – | – | Inactive
>738 µM | > 184 µM | > 184 µM | Cc1cc(N2CCCC2)n2nc(C(F)(F)F)nc2n1 [Compound 21, 5-Methyl-7-(pyrrolidin-1-yl)-2-(trifluoromethyl)[1,2,4]triazolo[1,5-a]pyrimidine] | – | – | Inactive
<71 µM | 36.9 ± 11.4 µM | 31.2 ± 17 µM | Cc1cc(Nc2nc(C(F)(F)F)n[nH]2)n2nc(C(F)(F)F)nc2n1 [Compound 23, 5-Methyl-2-(trifluoromethyl)-7-(5-(trifluoromethyl)-3-amine-4H-1,2,4-triazolyl)[1,2,4]triazolo[1,5-a]pyrimidine] | – | – | Inactive
>749 µM | 97.4 ± 22.5 µM | 78.7 ± 7.49 µM | Cc1cc(-n2cccc2)n2nc(C(F)(F)F)nc2n1 [Compound 27, 5-Methyl-7-(1H-pyrrol-1-yl)-2-(trifluoromethyl)[1,2,4]triazolo[1,5-a]pyrimidine] | – | – | Inactive
